According to US6310093A (priority 1998, dated 2001):

Test system: glial cultures (astrocytes)
Assay: Glutamate and cell death in glial cultures exposed to hypoxia with glutamine
Format: cell-based, mouse (Swiss Webster)
Conditions: for Glu: hypoxia, 2 mM Gln
Procedure: Measurements of glutamate and glutamine concentrations, as well as of the release of the cytoplasmic marker enzyme, lactate dehydrogenase (LDH), were made with the medium of mixed neuronal-astrocyte cultures exposed to hypoxic and control conditions, with and without the addition of 2 mM glutamine. For comparative purposes, the measurements were made in mixed cultures in which complete neuronal death was caused by a 5h exposure to 500 μM NMDA. The first glutamate measurement was made at the end of hypoxia (5h with mixed cultures, 7h with astrocytes), and the second at 19 h after the subsequent return of oxygen. If added, glutamine was present during and after hypoxia. LDH released by the experimental treatment was measured at 24 h, and is expressed as a percentage of the total cellular content (neurons in mixed cultures, and glia in glial cultures). To verify the neuronal origin of LDH and glutamate, similar experiments were performed on cultures that only contained glia.
Astrocytes were cultured from cortical cell suspensions from 1-2 day old Swiss Webster mouse pups. Mixed cultures of neurons and astrocytes were obtained by plating cortical neurons from embryonic day 15-16 mice on confluent astrocyte monolayers. Pure neuronal cultures were made from the same embryonic cortical cell suspensions; astrocyte growth was inhibited by adding cytosine arabinoside and decreasing serum in the medium. For survival, neuronal cultures were fed with glial conditioned medium. Neuronal cultures were used for experiments at 11-15 days in vitro, and mixed cultures at 13-15 days after plating the neurons.
Hypoxia was carried out at 37° C. in an anoxic chamber (<0.2% oxygen; Forma Scientific). Before each experiment, the medium was pre-equilibrated with an anoxic gas mixture containing 5% CO2, 85% N2 and 10% H2 and incubated at 37° C. […] The oxygen tension in the anoxic chamber was monitored using an oxygen electrode (Model MI-730; Microelectrodes Inc.). […]

Q: Which results are given for `NC(=O)CC[C@H](N)C(=O)O` [Gln, glutamine]?
A: cytotoxicity at 2000 µM (Mus musculus, Astrocyte, 24 h, read-out: % cell death (LDH)): 2 to 5%; Glu (7 h): 0.39 ± .09 µM; Glu (24 h): 0.39 ± 0.07 µM
